Reference: patent publication US10507212B2, “Method for use of homopiperazinium compounds in the treatment of cancer” (UNIVERSITÉ LAVAL, priority 2014, dated 2019)
Read-outs that look alike come from different tables or passages of the source.

Experiments:
[1] = test system: PC3; test: Anti-proliferative MTT assay, PC3; format: cell-based; details: Homo sapiens
Method: (§1) The effect of ASM-024 on the growth of MCF7, SK-BR-3, MDA-MB-231, BT-474 (mammary adenocarcinomas), SK-OV/3 (ovary adenocarcinoma), PC3 (prostate adenocarcinoma) SK-MEL-28(skin melanoma) and C6 (tumor cell glioma) was evaluated. Cells were cultured in RPMI medium and incubated with different concentrations of ASM-024. Cell proliferation was measured on days 3 and 6 by the MTT colorimetric assay. Absorbance at 576-690 nm was analyzed with a microplate reader and expressed as optical density (OD) and as a percentage of the value of corresponding untreated cells. The IC50 was determined as the drug concentration required to inhibit cell growth by 50% from a plot of percent cell viability from control untreated cells versus treated cells.

[2] = test system: SK-BR-3; test: Anti-proliferative MTT assay, SK-BR-3; format: cell-based; details: Homo sapiens
Method: as §1

[3] = test system: BT-474; test: Anti-proliferative MTT assay, BT-474; format: cell-based; details: Homo sapiens
Method: as §1

[4] = test system: SK-OV/3; test: Anti-proliferative MTT assay, SK-OV/3; format: cell-based; details: Homo sapiens
Method: as §1

[5] = test system: H82 small cell lung carcinoma; test: Cell proliferation assay, H82 (CellTiter fluorescence); format: cell-based; details: for IC50: Homo sapiens
Method: (§2) In vitro experiments were conducted on four cancer cell lines: the A549 adenocarcinoma cell line, the H520 squamous cell carcinoma the H82 small cell lung carcinoma and Calu 3 lung adenocarcinoma. The A549 tumor cells, were plated at a density of 1.5×10^4 cells per mL and let to adhere on 96-well microplates in F12K cell culture medium enriched with 10% fetal calf serum (FCS). The H520, H82 and Calu 3 tumor cells were plated at a density of 5×10^4 cells per mL in RPMI+10% FCS. After 24 h in culture, the medium was changed and cells were exposed to ASM-024 at concentrations ranging from 10^−7M to 10^−3M (FIGS. 1A-1C). After 3 and 6 days in culture, cell growth was quantified using the MTT colorimetric assay (M2128, Sigma) at 575-690 nm or the Cell Titer fluorescence assay (G8080, Promega) at 560/590 nm.
(§3) In an another set of experiments, a series of 16 other homopiperazinium compounds, in addition to ASM-024, were tested for their anti-proliferative effect on the four tumor cell lines described above after up to 6 days in culture at concentrations of 10^-7M to 10^-3M. (FIGS. 4A-4E) Cell growth was quantified using the MTT colorimetric assay for the A-549, H520 and Calu 3 cell lines and the CellTiter Fluorescence assay.for the H82 tumor cell line These are established method of determining viable cell number in proliferation studies.

[6] = test system: A549 cells; test: In vivo antitumor assay, A549 tumor cell-bearing nu/nu mice (Example 27); details: 30 mg/kg daily, subcutaneous or intraperitoneal
Method: For the in vivo antitumor assay, nu/nu mice were inoculated subcutaneously in the flank of mice with 2×10^6 A549 cells in sterile PBS mixed with 50% matrigel. Two days later ASM-024 was administered daily by subcutaneous (at a site close to the tumor) or intraperitoneal delivery at the dose of 30 mg/kg for up to 50 days. When palpable, tumor length and width were measured with a caliper and tumor volume calculated according to the formula Volume=(width2×length)/2.
FIGS. 6A, 6B, 7A and 7B are illustrating the antitumor effect of ASM-024 in A549 tumor cell-bearing mice after 51 days. The antitumor effect of each delivery mode was evaluated by measuring tumor volume (FIGS. 6A and 6B) and weight (FIGS. 7A and 7B). Values are presented as the mean±standard deviation.

[7] = test system: H520 squamous cell carcinoma; test: Cell proliferation assay, H520 (MTT); format: cell-based; details: for IC50: Tosylate
Method: as §2, §3

[8] = test system: A549 human lung carcinoma cells; test: In vivo antitumor assay, A549 xenograft in Balb/c nude mice (Example 29); details: day 49; ASM-024 45 mg/kg s.c. daily day 14-38; taxol 10 mg/kg i.p. days 21, 28, 35; cisplatin 2.5 mg/kg i.p. days 28, 35
Method: For the in vivo antitumor assay, A549 human lung carcinoma cells (3.5×106) in 50% F12K medium (Matrigel) were implanted subcutaneously in the flank of Balb/c nude mice (nu/nu, Charles River) and allowed to grow for 14 days. ASM-024 was administered daily by subcutaneous delivery at the dose of 45 mg/kg from day 14 to day 38 post cell inoculation. Taxol was administrated intraperitoneally at the dose of 10 mg/kg on days 21, 28 and 35. Cisplatin was administrated intraperioneally at the dose of 2.5 mg/kg on days 28 and 35. From day 14 to day 49, tumor length and width were measured once or twice a week with a caliper and tumor volume calculated according to the formula Volume=(width2×length)/2.

[9] = test system: A549 lung adenocarcinoma; test: In vitro combination treatment with cisplatin or taxol, A549 (MTT); format: cell-based, human; details: ASM-024 alone, 3 days of drug treatment
Method: The concomitant effect of ASM-024 and cisplatin or taxol on the proliferation of A549 lung adenocarcinoma and MCF7 breast cancer adenocarcinoma cells was assessed in vitro.
A549 cells (3.0×10^3cells/well) were first cultured with 10% FBS in F12K media and MCF7 cells (10×10^3 cells/well) with 10% FBS in EMEM media for 24 hours to allow cells to adhere to the plate at 37° C. in a humidified incubator with 5% CO2. The next day, the media was replaced in medium containing appropriate drug concentrations […] for an additional 72 hours. Cell viability was quantified using the MTT colorimetric assay (M2128, Sigma) at 575-690 nm.

[10] = test system: MCF7; test: Anti-proliferative MTT assay, MCF7; format: cell-based; details: Homo sapiens
Method: as §1

[11] = test system: Calu 3 lung adenocarcinoma; test: Cell proliferation assay, Calu 3 (MTT); format: cell-based; details: Homo sapiens
Method: as §2, §3

[12] = test system: SK-MEL-28; test: Anti-proliferative MTT assay, SK-MEL-28; format: cell-based; details: Homo sapiens
Method: as §1

- IC50 ([1]; PC-3, 72 h, PC3, day 3, read-out: IC50 Day 3): > 700 µM
- IC50 ([1]; PC-3, 144 h, PC3, day 6, read-out: IC50 Day 6): 176 ± 29 µM
- IC50 ([2]; 72 h, SK-BR-3, day 3, read-out: IC50 Day 3): > 1000 µM
- IC50 ([2]; 144 h, SK-BR-3, day 6, read-out: IC50 Day 6): 197 ± 67 µM
- IC50 ([3]; 72 h, BT-474, day 3, read-out: IC50 Day 3): > 1000 µM
- IC50 ([3]; 144 h, BT-474, day 6, read-out: IC50 Day 6): 644 ± 230 µM
- IC50 ([4]; 72 h, SK-OV/3, day 3, read-out: IC50 Day 3): > 600 µM
- IC50 ([4]; 144 h, SK-OV/3, day 6, read-out: IC50 Day 6): 618 ± 125 µM
- IC50 ([5]; NCI-H82, 72 h, H82, day 3 in culture, read-out: IC50 Day 3): 314 ± 205 µM
- IC50 ([5]; NCI-H82, 144 h, H82, day 6 in culture, read-out: IC50 Day 6): 218 ± 76 µM
- IC50 ([7]; H520, day 3 in culture, read-out: IC50 Day 3): 468 ± 287 µM
- IC50 ([7]; H520, day 6 in culture, read-out: IC50 Day 6): 257 ± 257 µM
- IC50 ([10]; 72 h, MCF7, day 3, read-out: IC50 Day 3): 470 ± 364 µM
- IC50 ([10]; 144 h, MCF7, day 6, read-out: IC50 Day 6): 209 ± 42 µM
- IC50 ([11]; 72 h, Calu 3, day 3 in culture, read-out: IC50 Day 3): 685 ± 320 µM
- IC50 ([11]; 144 h, Calu 3, day 6 in culture, read-out: IC50 Day 6): 192 ± 217 µM
- IC50 ([12]; 72 h, SK-MEL-28, day 3, read-out: IC50 Day 3): > 800 µM
- IC50 ([12]; 144 h, SK-MEL-28, day 6, read-out: IC50 Day 6): 259 ± 63 µM
Compound: CC[N+]1(CC)CCCN(c2ccccc2)CC1.Cc1ccc(S(=O)(=O)[O-])cc1 [ASM-024, 1,1-Diethyl-4-phenyl-homopiperazinium Tosylate]
- cell proliferation / cell growth inhibition (in words) ([5]; H82, day 3 and day 6, text on figures): dose-dependent decrease in cell proliferation
- Tumor growth, as determined by mean tumor volumes ([6]; 51 days of observation, vs control mice): reduced
- Mean tumor weight after surgical resection ([6]; after 51 days, vs vehicle-treated control mice): reduction in tumor mass
- cell proliferation / cell growth inhibition (in words) ([7]; H520, day 3 and day 6, text on figures): dose-dependent decrease in cell proliferation
- A549 human carcinoma tumor growth (tumor volume) [8]: decrease in A549 human carcinoma tumor growth
- A549 cell growth inhibition [9]: dose-dependent growth inhibition of cell proliferation
